Assay results from patent publication US12534444B2, “Treatment of cancer/inhibition of metastasis” (Celex Oncology Innovations Limited, priority 2010, dated 2026).
“Also recorded” adds a separate entry of the source.

Assays:
MDA-MB-231 cells [1] = assay: Lateral motility assay (wound-heal / scratch); type: cell-based, human
Experimental: This assay was used to represent the “free” motility of cancer cells during local spreading. FIG. 5(a) is a plan view from above of a cell culture dish 501 having a semi-confluent layer of cells 502 on its surface, the cells being in an aqueous medium 503.
In order to determine lateral motility, a “wound-heal (“scratch”)” test was carried out, in which a scratch 504 of ˜0.5 mm was made through the layer of cells, as shown in FIG. 5(b) which is a side sectional view of the cell culture dish.
During the period of 24 hours following the formation of the scratch, the cells moved into the gap.
FIGS. 5(c) and 5(d) are schematic plan views of the cell culture dish 501 at time t=zero when the width of the scratch 504 is w0 and time t=24 hours when the width of the scratch 504 is w24, respectively.
(§1) With the exception of single cell adhesion tests, which are discussed in the following paragraph, experiments were carried out under either; • (i) normal normoxic conditions ([…], 5% carbon dioxide), or • (ii) following 24 hours hypoxic pre-treatment (2% O2, 5% CO2, 93% N2) continued during the assays.

MDA-MB-231 cells [2] = assay: Transverse migration assay (Transwell); type: cell-based, human
Experimental: This assay was used to represent the ability of cells to migrate as they intra/extravasate. […] The insert 602 has a migration filter membrane 605 in its base with 8 μm pores 606 extending therethrough.
Cells 607 were plated at a density of 2×10^4/ml on the filter membrane 605 and placed under a growth medium 608 containing 1% foetal bovine serum (FBS). A chemotactic gradient was created across the filter membrane 605 by placing growth medium 609 containing 10% FBS in the lower section 604 of the chamber.
Cells were allowed to migrate across the filter membrane 605 over a period of 24 hours, cells migrating and adhering to the underside of the filter membrane 605.
At the end of each assay, non-migrated cells were removed from the upper surface of the insert 602 with two different swabs
The number of cells migrating to the underside of the insert 602 was determined using crystal violet staining. Migrated cells were fixed for 15 minutes with ice-cold methanol. Then 0.5% crystal violet (in 25% methanol) was added for 15 minutes. The inserts were swabbed again and then washed in water and allowed to dry. Cells were then counted using twelve separate fields of view per insert (×200 magnification).
as §1

Mat-LyLu cells [3] = assay: Invasion assay (Matrigel Transwell); type: cell-based, rat
Excerpt: This assay is an extension of the transverse migration assay described above. To “invade”, the cells need both (i) to move as in the transverse migration assay and (ii) secrete a proteolytic enzyme to digest their surroundings. The ability of cells to invade neighbouring tissues by enzyme secretion was therefore assessed by using a layer of Matrigel™ (BD Biosciences) spread across the porous membrane of a Transwell® insert.
FIG. 7 is a schematic side sectional view of an invasion chamber 701 having a Transwell® insert 702 separating the chamber into upper 703 and lower 704 sections. The insert 702 has a migration filter membrane 705 in its base with 8 μm pores 706 extending therethrough. A layer 707 of Matrigel™ is shown coating the filter membrane 705.
Cells 708 were plated at a density of 2×10^4/ml onto the Matrigel™ layer 707 in 24-well plates (Becton-Dickinson) according to the manufacturers' instructions. 50 μl Matrigel™ was seeded at a 1:7 dilution (10 mg/ml stock) onto the inserts and left overnight. Prior to seeding with the cells the Matrigel™ was rehydrated using medium with no additions. This medium was removed prior to seeding the cells.
Cells were plated in a 1-5% FBS chemotactic gradient overnight (12 hours). The nutrient concentration in the medium 709 in the upper section 703 of the chamber was less than the concentration of nutrient in the medium 710 in the lower section 704 to induced movement of the cells through the Matrigel™ layer 707 and through the pores 706 to the underside of the filter membrane 705. At the end of each assay, non-invaded/non-migrated cells were removed from the upper surface of the insert 702 with two different swabs.
The number of cells invading to the underside of the insert 702 was determined using crystal violet staining. Invaded cells were fixed for 15 minutes with ice-cold methanol. Then 0.5% crystal violet (in 25% methanol) was added for 15 minutes. The inserts were swabbed again and then washed in water and allowed to dry. Cells were then counted using twelve separate fields of view per insert (×200 magnification). If the difference in the average number of cells invading the two control inserts was more than 40%, the experiment was rejected.
as §1

Mat-LyLu cells [4] = assay: Cell growth (proliferation) assay (MTT); type: cell-based, rat
Experimental: Cells were plated at 2×10^4 cells/ml in 24-well plates (Becton-Dickinson) and allowed to settle overnight. The cells were then treated for the required time of incubation (24 hours+), with medium changes every 24 hours. At the end of the treatment, the medium was removed, and this was followed by the colorimetric 3-[4,5-dimethylthiazol-2-yl]-2,5-diphenyltetrazolium bromide (MTT) assay (Grimes et al., 1995). Briefly, 0.1 ml MTT (5 mg/ml made up in the growth medium) and 0.4 ml growth medium was added in each well and the plate was incubated for 3-4 hours at 37° C. The medium was then removed from the chambers and replaced with 0.5 ml dimethyl sulfoxide (DMSO) and 0.063 ml glycine buffer (0.1 M glycine and 0.1 M NaCl; pH 10.5). Absorbance at 570 nm was determined 15 minutes after the addition of the glycine buffer. Results were calculated as means of nine repeats of each of the treatment vs. control spectrophotometer readings from individual invasion wells.
as §1

[5] = Hypoxia, 1 μM, listed as RANOLAZINE
[6] = Hypoxia, 10 μM, listed as RANOLAZINE
[7] = Hypoxia, 100 μM, listed as RANOLAZINE
[8] = Normoxia, 1 μM, listed as RANOLAZINE
[9] = Normoxia, 10 μM, listed as RANOLAZINE
[10] = Normoxia, 100 μM, listed as RANOLAZINE
[11] = Hypoxia, 20 μM, listed as RANOLAZINE
[12] = Hypoxia, 50 μM, listed as RANOLAZINE
[13] = Hypoxia, 300 μM, listed as RANOLAZINE
[14] = Normoxia, 20 μM, listed as RANOLAZINE
[15] = Normoxia, 50 μM, listed as RANOLAZINE
[16] = Normoxia, 300 μM, listed as RANOLAZINE

## COc1ccccc1OCC(O)CN1CCN(CC(=O)Nc2c(C)cccc2C)CC1 (stereo not shown) [ranolazine]
MDA-MB-231 cells [1]; Hypoxia, 1 μM
  LATERAL MOTILITY: statistically significant reduction; also recorded: reduced the lateral motility
MDA-MB-231 cells [1]; [5]
  LATERAL MOTILITY: decreased
MDA-MB-231 cells [1]; Hypoxia, 10 μM
  LATERAL MOTILITY: statistically significant reduction; also recorded: reduced the lateral motility
MDA-MB-231 cells [1]; [6]
  LATERAL MOTILITY: decreased
MDA-MB-231 cells [1]; Hypoxia, 100 μM
  LATERAL MOTILITY: statistically significant reduction; also recorded: reduced the lateral motility
MDA-MB-231 cells [1]; [7]
  LATERAL MOTILITY: decreased
MDA-MB-231 cells [1]; Normoxia, 1 μM
  LATERAL MOTILITY: reduced
MDA-MB-231 cells [1]; [8]
  LATERAL MOTILITY: decreased
MDA-MB-231 cells [1]; Normoxia, 10 μM
  LATERAL MOTILITY: reduced
MDA-MB-231 cells [1]; [9]
  LATERAL MOTILITY: decreased
MDA-MB-231 cells [1]; Normoxia, 100 μM
  LATERAL MOTILITY: reduction at a concentration of 100 μM ranolazine was statistically significant
MDA-MB-231 cells [1]; [10]
  LATERAL MOTILITY: decreased
MDA-MB-231 cells [2]; Hypoxia, 1 μM
  TRANSVERSE MIGRATION: reduced the transverse migration of the cells in a statistically significant way
MDA-MB-231 cells [2]; [5]
  TRANSVERSE MIGRATION: decreased
MDA-MB-231 cells [2]; Hypoxia, 10 μM
  TRANSVERSE MIGRATION: reduced the transverse migration of the cells in a statistically significant way
MDA-MB-231 cells [2]; [6]
  TRANSVERSE MIGRATION: decreased
MDA-MB-231 cells [2]; Hypoxia, 100 μM
  TRANSVERSE MIGRATION: the reduction was not statistically significant
MDA-MB-231 cells [2]; [7]
  TRANSVERSE MIGRATION: decreased
MDA-MB-231 cells [2]; Normoxia, 1 μM
  TRANSVERSE MIGRATION: reduced the transverse migration of the cells only slightly
MDA-MB-231 cells [2]; [8]
  TRANSVERSE MIGRATION: increased
MDA-MB-231 cells [2]; Normoxia, 10 μM
  TRANSVERSE MIGRATION: reduced the transverse migration of the cells only slightly
MDA-MB-231 cells [2]; [9]
  TRANSVERSE MIGRATION: decreased
MDA-MB-231 cells [2]; Normoxia, 100 μM
  TRANSVERSE MIGRATION: reduced the transverse migration of the cells only slightly
MDA-MB-231 cells [2]; [10]
  TRANSVERSE MIGRATION: decreased
Mat-LyLu cells [3]; Hypoxia, 20 μM
  INVASIVENESS (no pretreatment): reduced the migration of the cells in a statistically significant way
Mat-LyLu cells [3]; [11]
  INVASIVENESS (no pretreatment): decreased
Mat-LyLu cells [3]; Hypoxia, 50 μM
  INVASIVENESS (no pretreatment): reduced the migration of the cells in a statistically significant way
Mat-LyLu cells [3]; [12]
  INVASIVENESS (no pretreatment): decreased
Mat-LyLu cells [3]; Hypoxia, 300 μM
  INVASIVENESS (no pretreatment): reduced the migration of the cells in a statistically significant way
Mat-LyLu cells [3]; [13]
  INVASIVENESS (no pretreatment): decreased
Mat-LyLu cells [3]; Normoxia, 20 μM
  INVASIVENESS (no pretreatment): reduced the migration of the cells in a statistically significant way
Mat-LyLu cells [3]; [14]
  INVASIVENESS (no pretreatment): decreased
Mat-LyLu cells [3]; Normoxia, 50 μM
  INVASIVENESS (no pretreatment): reduced the migration of the cells in a statistically significant way
Mat-LyLu cells [3]; [15]
  INVASIVENESS (no pretreatment): decreased
Mat-LyLu cells [3]; Normoxia, 300 μM
  INVASIVENESS (no pretreatment): reduced the migration of the cells in a statistically significant way
Mat-LyLu cells [3]; [16]
  INVASIVENESS (no pretreatment): decreased
Mat-LyLu cells [3]; higher concentrations tested, TTX 1 μM
  potency on invasiveness compared with positive control TTX: more potent than the toxin (TTX)
Mat-LyLu cells [4]; Hypoxia, 20 μM
  PROLIFERATION (24 hours): did not result in any statistically significant effect
Mat-LyLu cells [4]; [11]
  PROLIFERATION (24 hours): no effect
Mat-LyLu cells [4]; Hypoxia, 50 μM
  PROLIFERATION (24 hours): did not result in any statistically significant effect
Mat-LyLu cells [4]; [12]
  PROLIFERATION (24 hours): no effect
Mat-LyLu cells [4]; Hypoxia, 300 μM
  PROLIFERATION (24 hours): reduction in the number of cells
Mat-LyLu cells [4]; [13]
  PROLIFERATION (24 hours): tail off
Mat-LyLu cells [4]; Normoxia, 20 μM
  PROLIFERATION (24 hours): did not result in any statistically significant effect
Mat-LyLu cells [4]; [14]
  PROLIFERATION (24 hours): no effect
Mat-LyLu cells [4]; Normoxia, 50 μM
  PROLIFERATION (24 hours): did not result in any statistically significant effect
Mat-LyLu cells [4]; [15]
  PROLIFERATION (24 hours): no effect
Mat-LyLu cells [4]; Normoxia, 300 μM
  PROLIFERATION (24 hours): did not result in any statistically significant effect
Mat-LyLu cells [4]; [16]
  PROLIFERATION (24 hours): tail off
